This passage reports Motility results from ChEMBL document CHEMBL3137381, “MMV Box Onchocerca lienalis screening set”.

Common to all, as to type: functional
Assay [1] relates to Onchocerca lienalis. Put plainly: MMV: Percent motility assay at a compound concentration of 3.1e-6 M. Activity score legend: 3: Active, 2: Moderately active; 1: Inactive, 0: Toxic. The following applies: at 3.1 µM.
For assay [2], the system named is Onchocerca lienalis. Put plainly: MMV: Percent motility assay at a compound concentration of 1.25e-5 M. Activity score legend: 3: Active, 2: Moderately active; 1: Inactive, 0: Toxic. As to conditions: at 12.5 µM.
For assay [3], the system named is Onchocerca lienalis. Put plainly: MMV: Percent motility assay at a compound concentration of 7.8e-7 M. Activity score legend: 3: Active, 2: Moderately active; 1: Inactive, 0: Toxic. The following applies: at 0.78 µM.
Assay [4] relates to Onchocerca lienalis. Put plainly: MMV: Percent motility assay at a compound concentration of 1.9e-7 M. Activity score legend: 3: Active, 2: Moderately active; 1: Inactive, 0: Toxic. The following applies: at 0.19 µM.

Consider `COc1ccc(C2c3ccc4ccccc4c3Oc3ncn(CCCN(C)C)c(=N)c32)cc1` (stereo not given), for which the Motility in the assay with Onchocerca lienalis [1], with Onchocerca lienalis [2], with Onchocerca lienalis [3] and in the assay with Onchocerca lienalis [4] was 100% each time.

Consider `Nc1nc(Nc2cccc(F)c2)nc2ccccc12`, for which the Motility with Onchocerca lienalis [1], with Onchocerca lienalis [2], with Onchocerca lienalis [3] and in the assay with Onchocerca lienalis [4] was 100% each time.

`COc1ccc(/C=C2/SC(=Nc3ccccc3)NC2=O)cc1`: the Motility in the assay with Onchocerca lienalis [1], in the assay on Onchocerca lienalis [2], with Onchocerca lienalis [3] and in the assay with Onchocerca lienalis [4] was 100% each time.

For the compound `O=C(NC1CCN(Cc2ccccc2)CC1)c1cc2nc(-c3ccc(Cl)s3)cc(C(F)(F)F)n2n1`, the Motility with Onchocerca lienalis [1], in the assay with Onchocerca lienalis [2], in the assay on Onchocerca lienalis [3] and with Onchocerca lienalis [4] was 100% in each case.

With `Cc1sc(NC(=O)c2ccccc2)c(C(c2cccs2)N2CCN(c3ccccc3)CC2)c1C` (stereo not given), the Motility in the assay with Onchocerca lienalis [1], with Onchocerca lienalis [2], with Onchocerca lienalis [3] and in the assay with Onchocerca lienalis [4] was 100% each time.

As to `CCOC(=O)c1c(C)n(-c2ccccc2)c2ccc(OC(=O)c3cc(OC)c(OC)c(OC)c3)cc12`, the Motility in the assay with Onchocerca lienalis [1], with Onchocerca lienalis [2], in the assay on Onchocerca lienalis [3] and in the assay on Onchocerca lienalis [4] was 100% throughout.

Take `N#Cc1nc(Cc2cccc3ccccc23)oc1N1CCN(C(c2ccccc2)c2ccccc2)CC1`: the Motility with Onchocerca lienalis [1], with Onchocerca lienalis [2], in the assay on Onchocerca lienalis [3] and with Onchocerca lienalis [4] was 100% in each case.

With `CCOc1ccc(N2C(N)=NC(N)=NC2(C)C)cc1.Cl`, the Motility in the assay with Onchocerca lienalis [1], in the assay on Onchocerca lienalis [2], in the assay on Onchocerca lienalis [3] and in the assay with Onchocerca lienalis [4] was 100% throughout.

In the case of `COc1cccc(Nc2nc(N)c3ccccc3n2)c1.Cl`, the Motility with Onchocerca lienalis [1], with Onchocerca lienalis [2], with Onchocerca lienalis [3] and in the assay on Onchocerca lienalis [4] was 100% in each case.

For `Cc1ccc(C(=O)c2oc3ccc4c(C)cc(=O)oc4c3c2C)cc1`, the Motility in the assay with Onchocerca lienalis [1], with Onchocerca lienalis [2], with Onchocerca lienalis [3] and in the assay with Onchocerca lienalis [4] was 100% throughout.

For the compound `CCCCCCc1cc2cc(-c3csc(C=Cc4ccccc4)n3)c(=O)oc2cc1O`, the Motility in the assay on Onchocerca lienalis [1], with Onchocerca lienalis [2], in the assay with Onchocerca lienalis [3] and in the assay with Onchocerca lienalis [4] was 100% in each case.

For `O=C(CCl)NCCOc1ccc(Cl)cc1Cl`, the Motility with Onchocerca lienalis [1], with Onchocerca lienalis [2], in the assay on Onchocerca lienalis [3] and in the assay with Onchocerca lienalis [4] was 100% in each case.

As to `Oc1ccc(-c2nc(-c3ccc4oc5ccc(-c6[nH]c(-c7ccc(O)cc7)nc6-c6ccccc6)cc5c4c3)c(-c3ccccc3)[nH]2)cc1`, the Motility in the assay on Onchocerca lienalis [1], in the assay with Onchocerca lienalis [2], in the assay with Onchocerca lienalis [3] and in the assay with Onchocerca lienalis [4] was 100% throughout.

Consider `CC(Oc1ccc(NC(=O)c2cccs2)cc1)C(=O)c1ccc(Cl)cc1` (stereo not given), for which the Motility in the assay with Onchocerca lienalis [1], in the assay on Onchocerca lienalis [2], in the assay on Onchocerca lienalis [3] and in the assay with Onchocerca lienalis [4] was 100% in each case.

On to `COc1ccc(CNC(=O)c2cc3c(=O)n4ccccc4nc3n(CCc3ccccc3)c2=N)cc1`, for which the Motility in the assay on Onchocerca lienalis [1], with Onchocerca lienalis [2], in the assay on Onchocerca lienalis [3] and in the assay with Onchocerca lienalis [4] was 100% throughout.

Regarding `O=C(NC1CCN(Cc2ccccc2)CC1)c1cc(C(=O)NC2CCN(Cc3ccccc3)CC2)cc(C(=O)NC2CCN(Cc3ccccc3)CC2)c1`, the Motility in the assay with Onchocerca lienalis [1], with Onchocerca lienalis [2], with Onchocerca lienalis [3] and in the assay on Onchocerca lienalis [4] was 100% throughout.

On to `COc1ccc(CCn2c(=N)c(C(=O)NCc3cccnc3)cc3c(=O)n4cccc(C)c4nc32)cc1`, for which the Motility in the assay with Onchocerca lienalis [1], in the assay with Onchocerca lienalis [2], in the assay with Onchocerca lienalis [3] and in the assay with Onchocerca lienalis [4] was 100% throughout.

As to `COc1ccc(-c2cn3c(C(=O)Nc4ccccc4Cl)c(-c4ccccc4)c4c3n2CCCC4)cc1`, the Motility in the assay with Onchocerca lienalis [1] is 100%; in the assay with Onchocerca lienalis [2], 66.66%; in the assay with Onchocerca lienalis [3], 100%; in the assay with Onchocerca lienalis [4], 100%.

In the case of `Cl.Cn1c(=O)n(C)c2cc(CNCCNc3ccnc4cc(Cl)ccc34)ccc21`, the Motility in the assay on Onchocerca lienalis [1], in the assay on Onchocerca lienalis [2], in the assay with Onchocerca lienalis [3] and in the assay with Onchocerca lienalis [4] was 100% in each case.

Turning to `CCOc1ccc2nc(C)cc(Nc3ccc(N(C)C)cc3)c2c1.Cl`, the Motility with Onchocerca lienalis [1], with Onchocerca lienalis [2], in the assay on Onchocerca lienalis [3] and with Onchocerca lienalis [4] was 100% throughout.

Turning to `COc1ccc(Nc2cc(C)nc(NCc3ccccc3)n2)cc1`, the Motility is 100% in the assay with Onchocerca lienalis [1], 66.66% in the assay on Onchocerca lienalis [2], 100% with Onchocerca lienalis [3] and 100% with Onchocerca lienalis [4].

For `COc1ccc(C=C2SC(Nc3ccc(F)cc3)=NC2=O)c(OC)c1`, the Motility in the assay on Onchocerca lienalis [1], with Onchocerca lienalis [2], in the assay with Onchocerca lienalis [3] and in the assay with Onchocerca lienalis [4] was 100% each time.

As to `O=C1c2ccc3c4c(ccc(c24)C(=O)N1CCCCO)C(=O)N(CCCCO)C3=O`, the Motility with Onchocerca lienalis [1], in the assay with Onchocerca lienalis [2], in the assay with Onchocerca lienalis [3] and with Onchocerca lienalis [4] was 100% each time.

As to `O=C(Nc1ccc(-c2nc3cc(NC(=O)c4ccc(Cl)cc4)ccc3[nH]2)cc1)c1ccc(Cl)cc1`, the Motility in the assay with Onchocerca lienalis [1], in the assay with Onchocerca lienalis [2], with Onchocerca lienalis [3] and in the assay on Onchocerca lienalis [4] was 100% in each case.

For the compound `CCOC(=O)c1cnc2ccc(OC)cc2c1Nc1ccc(N2CCN(C)CC2)cc1`, the Motility in the assay on Onchocerca lienalis [1], with Onchocerca lienalis [2], in the assay on Onchocerca lienalis [3] and in the assay with Onchocerca lienalis [4] was 100% in each case.

On to `COc1ccccc1C(=O)ON=C(N)Cc1cccc2ccccc12`, for which the Motility with Onchocerca lienalis [1], in the assay with Onchocerca lienalis [2], in the assay on Onchocerca lienalis [3] and in the assay with Onchocerca lienalis [4] was 100% in each case.

For `CCOc1cc2c(cc1OCC)C(c1cc(Cl)ccc1O)NCC2` (stereo not given), the Motility in the assay on Onchocerca lienalis [1], with Onchocerca lienalis [2], with Onchocerca lienalis [3] and in the assay with Onchocerca lienalis [4] was 100% each time.

For `CN1C=C(c2ccc3ccccc3n2)C(c2c[nH]c3ccccc23)c2ccccc21` (stereo not given), the Motility with Onchocerca lienalis [1] was 100%; in the assay on Onchocerca lienalis [2] it was 33.33%; in the assay on Onchocerca lienalis [3], 100%; in the assay on Onchocerca lienalis [4] it was 100%.

Take `OC(CNC1CCCCC1)Cn1c2ccc(I)cc2c2cc(I)ccc21` (stereo not given): the Motility in the assay with Onchocerca lienalis [1], with Onchocerca lienalis [2], in the assay on Onchocerca lienalis [3] and in the assay with Onchocerca lienalis [4] was 100% each time.

For `c1ccc(CNc2nc(Nc3ccccc3)nc3ccccc23)cc1`, the Motility in the assay on Onchocerca lienalis [1] came out at 100%; in the assay on Onchocerca lienalis [2], 0%; in the assay on Onchocerca lienalis [3], 100%; in the assay with Onchocerca lienalis [4], 100%.

Take `Oc1ccc(Br)cc1CN1CCN(Cc2ccc(Cl)cc2)CC1`: the Motility in the assay with Onchocerca lienalis [1], with Onchocerca lienalis [2], with Onchocerca lienalis [3] and in the assay with Onchocerca lienalis [4] was 100% throughout.

Consider `CCOc1ccc2nc(C)cc(Nc3ccc(Br)cc3)c2c1`, for which the Motility in the assay with Onchocerca lienalis [1], with Onchocerca lienalis [2], in the assay on Onchocerca lienalis [3] and in the assay with Onchocerca lienalis [4] was 100% each time.

On to `COc1cc2c3cc1Oc1c(OC)c(OC)cc4c1C(Cc1ccc(O)c(c1)Oc1ccc(cc1)CC3N(C)CC2)N(C)CC4.Cl` (stereo not given), for which the Motility in the assay on Onchocerca lienalis [1], in the assay with Onchocerca lienalis [2], in the assay with Onchocerca lienalis [3] and with Onchocerca lienalis [4] was 100% throughout.

On to `COc1ccc2sc(N(Cc3cccnc3)C(=O)c3ccc(C#N)cc3)nc2c1`, for which the Motility in the assay with Onchocerca lienalis [1], with Onchocerca lienalis [2], in the assay with Onchocerca lienalis [3] and in the assay with Onchocerca lienalis [4] was 100% throughout.

`CC1CC2=C(CC1CNCCCN(C)C)C(C)(C)CCC2` (stereo not given): the Motility in the assay with Onchocerca lienalis [1], in the assay with Onchocerca lienalis [2], with Onchocerca lienalis [3] and in the assay with Onchocerca lienalis [4] was 100% each time.

For the compound `CCOC(=O)c1cnc2ccc(OC)cc2c1NCc1ccccc1`, the Motility in the assay on Onchocerca lienalis [1], in the assay on Onchocerca lienalis [2], in the assay on Onchocerca lienalis [3] and with Onchocerca lienalis [4] was 100% throughout.

On to `CCOC(=O)C1=CN(C)C=C(C(=O)OCC)C1c1cc(Br)c(OCC)c(OC)c1`, for which the Motility in the assay on Onchocerca lienalis [1], in the assay on Onchocerca lienalis [2], in the assay on Onchocerca lienalis [3] and in the assay with Onchocerca lienalis [4] was 100% in each case.

With `CC(C)(C)c1ccc(C2CC3=Nc4ccccc4N(C(=O)c4ccccc4Cl)C(c4ccc(F)cc4)C3=C(O)C2)cc1` (stereo not given), the Motility with Onchocerca lienalis [1], in the assay on Onchocerca lienalis [2], in the assay on Onchocerca lienalis [3] and with Onchocerca lienalis [4] was 100% in each case.

On to `CN1CCN(c2nc(Nc3ccc(O)cc3)nc3ccccc23)CC1.Cl`, for which the Motility in the assay on Onchocerca lienalis [1], in the assay on Onchocerca lienalis [2], in the assay with Onchocerca lienalis [3] and with Onchocerca lienalis [4] was 100% in each case.

Take `CCCCc1c(CCC)c(=N)c2ccccc2n1C.I`: the Motility in the assay on Onchocerca lienalis [1], in the assay with Onchocerca lienalis [2], in the assay with Onchocerca lienalis [3] and in the assay with Onchocerca lienalis [4] was 100% throughout.
